From article PMC12473165, “Theranostic Potential of a New ^64Cu-Labeled NOTA-R954 Peptide Conjugate for Kinin B1R Expressing Prostate Cancer” (Pharmaceutics, 2025)
Several values for one entry are separate records, joined by “and”; a condition that tells them apart may be missing. Identical values can stand only once. Square brackets hold non-standard residues; d marks the D form. Peptide text beside a SMILES is read from it. * marks the point of attachment. NOTA = O=C(O)CN1CCN(CC(=O)O)CCN(CC(=O)*)CC1; Oic = O=C(O)[C@@H]1C[C@@H]2CCCC[C@@H]2N1; d2Nal = N[C@H](Cc1ccc2ccccc2c1)C(=O)O; αMeF = C[C@](N)(Cc1ccccc1)C(=O)O; Orn = NCCC[C@H](N)C(=O)O; βAla = NCCC(=O)O

How the values were obtained:
PC3 xenografts = assay: Peptide receptor radionuclide therapy (PRRT) in PC3 xenograft-bearing mice; assay type: in vivo, mouse; settings: nude mice with s.c. PC3 xenografts, single IV dose 50 µg/kg; 65 MBq
Procedure: Male Nu/Nu nude mice (Crl:NU-Foxn1nu: 4–6 weeks old, Charles River Laboratories, Inc., Wilmington, MA, USA) were subcutaneously (s.c.) inoculated into one or both lower flanks with PCa cells. LNCap cells (10 x 10^6) and PC3 cells (2.5 × 10^6) were suspended in 0.2 mL of a 1:1 (v/v) mixture of antibiotic-free DMEM medium and Matrigel (#356234, Sigma-Aldrich) for injection. Within 10–21 days post-inoculation, solid palpable prostate tumors had developed, and the animals were used for biodistribution, PET imaging, and radiotherapy studies. […]
Therapeutic efficacies of agents were investigated in PC3 xenograft-bearing mice. […] Tumor growth was monitored with a digital vernier caliper using the following formula: length × width^2. The weight of the mice was monitored throughout the study. […] Tumor growth was normalized by calculating the ratio of the tumor volume at each time point to the initial tumor volume measured prior to treatment. […]. […]
Retrieved subcutaneous tumors (5 μm thick sections) were evaluated by H&E and semiquantitative IHC staining of B1R, Ki67 (proliferation), cleaved caspase 3 (apoptosis), CD34 (angiogenesis), and LYVE-1 (lymphangiogenesis). […] Positive Ki67 staining was determined by the nucleus count (Ki-67+ cells/total cells) in sampled fields. […]

[1] = mouse, in vivo, iv
Procedure: To perform ex vivo biodistribution studies, radiolabeled peptides (5–10 MBq; 100 μL) were administered to isoflurane-anaesthetized normal male Balb/c mice through caudal vein injection. Organs were collected 1 h and 4 h post-injections from CO2 inhalation-euthanized animals and were washed, weighted, and radioactivity measured in a gamma counter (Cobra II auto-gamma counter, Packard). The percentage of injected dose per gram of tissue (%ID/g) was then calculated, accounting for decay correction, using external ^64Cu standards. Biodistribution of the radiolabeled peptides was also performed in PCa tumor-bearing nude mice using micro-PET imaging performed on a 7.5 cm axial and 10 cm transaxial field of view LabPET8 small-animal scanner (Gamma Medica-IDEAS Inc., Northridge, CA, USA) in combination with X-ray computer tomography (CT) (MILabs U-CT system, Utrecht, The Netherlands). For this, radiolabeled peptides (6–9 MBq in 200 μL) were delivered by tail-vein injection to isoflurane-anaesthetized mice. PET scans composed of 30 min static acquisition were acquired at 1 h and 20 h after injection. […] To quantify the tumor uptake of the radiotracer, a volume of interest (VOI) was drawn around the center of the tumor. The uptake was determined as the means of the VOI voxels having intensity in the upper quartile.

hB1R [2] = target: T1, hB1R (Homo sapiens, UniProt P46663); assay: NFAT-eGFP reporter assay in CHO-hB1R-NFAT-eGFP cells; assay type: cell-based; set-up: expressed in transfected cells; host or cells: CHO (hB1R-expressing line, then transduced with NFAT-eGFP reporter); settings: means of two independent experiments; for EC50: hB1R-stably expressing CHO-NFAT-eGFP cells, agonist potency, 16 h stimulation, read-out: CHO-NFAT EC50 (Table S2); for IC50: hB1R-stably expressing CHO-NFAT cells, antagonist potency, read-out: CHO-NFAT IC50 (Table S1)
T1 sequence (P46663 1-353): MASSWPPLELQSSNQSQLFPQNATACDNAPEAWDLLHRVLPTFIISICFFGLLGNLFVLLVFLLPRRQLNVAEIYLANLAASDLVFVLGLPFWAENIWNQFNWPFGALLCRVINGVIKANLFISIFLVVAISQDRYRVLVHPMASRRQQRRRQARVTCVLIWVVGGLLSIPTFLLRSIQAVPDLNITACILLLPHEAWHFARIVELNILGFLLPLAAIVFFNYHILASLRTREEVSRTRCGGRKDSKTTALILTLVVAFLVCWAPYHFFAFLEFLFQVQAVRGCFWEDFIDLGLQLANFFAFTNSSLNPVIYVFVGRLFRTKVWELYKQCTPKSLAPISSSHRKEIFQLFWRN
Excerpt: The pLenti-6V5-NFAT-eGFP vector was generated from the pSIRV-NFAT-eGFP vector (a gift from Peter Steinberger, Addgene plasmid #118031). Briefly, NFAT-eGFP gene was PCR amplified using the following primers: 5′-[…]-3′ and 5′-[…]-3′). The amplified gene was then ligated into the ClaI and AgeI restriction sites of the pLenti-6V5 vector. Lentiviruses were produced using the pLenti-6V5-NFAT-eGFP vector in HEK293T cells and used to transduce a hB1R-expressing CHO cell line, followed by selection with 10 µg/mL blasticidin. […] Clones were grown in 4000 nanowells/well in 24-well plates and re-plated into 96-well plates after initial expansion via the ALS CellCelector™ (Sartorius Corporation, Bohemia, NY, USA). After clonal expansion, individual cell lines were evaluated based on their ratio of stimulated fluorescence to basal expression to determine maximum sensitivity.
Fluorescence assays performed on CHO-hB1R-NFAT-eGFP cells. Target cells were plated at 10,000 cells/well in a 96-well microplate (opaque black wells with clear flat bottom, Thermo Scientific, Rockford, IL, USA) using RPMI 1640 medium with 10% fetal bovine serum (FBS). After 24 h, the medium was replaced by RPMI without FBS and phenol red. […] Fluorescence was measured using a TECAN M1000 (Tecan Group Ltd., Männedorf, Switzerland) multimode microplate reader with excitation at 488 nm and emission at 507 nm. Each data point represents a ratio of two values, divided by the average fluorescence of six control wells. […] Antagonist affinity (Kb) was estimated from functional inhibition curves using the Gaddum (Schild) equation assuming competitive antagonism at human B1R: Kb = [B]/(dose-ratio–1), where [B] is the antagonist concentration, and the dose ratio is EC50 + Compound/EC50.

hB1R [3] = target: T1, hB1R; assay: Radioligand competition binding on HEK293 cells stably expressing hB1R; set-up: expressed in transfected cells; host or cells: QBI-HEK293A (lentiviral transduction, puromycin selection); settings: hB1R-stably expressing HEK293 cells, means of two independent experiments
[4] = binding affinity of agonists, read-out: HEK293 IC50 (Table S2)
[5] = binding affinity, read-out: HEK293 IC50 (Table S1)

Row | EC50 (hB1R [2]) [nM] | IC50 (hB1R [3]; [4]) [nM] | IC50 (hB1R [2]) | IC50 (hB1R [3]; [5]) [nM] | SMILES | further results
1 | – | – | – | – | CC[C@H](C)[C@H](NC(=O)[C@@H](Cc1ccc2ccccc2c1)NC(=O)[C@H](CO)NC(=O)[C@](C)(Cc1ccccc1)NC(=O)CNC(=O)[C@@H]1CCCN1C(=O)[C@@H]1C[C@@H]2CCCC[C@@H]2N1C(=O)[C@H](CCCNC(=N)N)NC(=O)[C@H](CCCN)NC(=O)CCNC(=O)CN1CCN(CC(=O)O)CCN(CC(=O)O)CC1)C(=O)O [^64Cu/NOTA-βAla-R954, metal not drawn] ({NOTA-βAla}-[Orn]R[Oic]PG[αMeF]S[d2Nal]I-OH) | observable toxicity (body weight) (PC3 xenografts): did not induce any observable toxicity; clearance from the bloodstream [1]: rapid clearance
2 | 2.2 | 2.3 | – | – | N=C(N)NCCC[C@H](NC(=O)[C@H](CCCCN)NC(=O)CCNC(=O)CN1CCN(CC(=O)O)CCN(CC(=O)O)CC1)C(=O)N1CCC[C@H]1C(=O)N1CCC[C@H]1C(=O)NCC(=O)N[C@@H](Cc1ccccc1)C(=O)N[C@@H](CO)C(=O)N1CCC[C@H]1C(=O)N[C@H](Cc1ccccc1)C(=O)O [MAB2047] | –
3 | 41 | 40 | – | – | CNCC(=O)N[C@@H](CCCCNC(=O)CN1CCN(CC(=O)O)CCN(CC(=O)O)CC1)C(=O)N[C@@H](CCCNC(=N)N)C(=O)N1CCC[C@H]1C(=O)N1CCC[C@H]1C(=O)NCC(=O)N[C@@H](Cc1ccccc1)C(=O)N[C@@H](CO)C(=O)N1CCC[C@H]1C(=O)N[C@H](Cc1ccccc1)C(=O)O [MAB8066] | –
4 | – | – | 0.4 nM | 5 | CC[C@H](C)[C@H](NC(=O)[C@@H](Cc1ccc2ccccc2c1)NC(=O)[C@H](CO)NC(=O)[C@](C)(Cc1ccccc1)NC(=O)CNC(=O)[C@@H]1CCCN1C(=O)C1CC2CCCCC2N1C(=O)[C@H](CCCNC(=N)N)NC(=O)[C@H](CCCN)NC(=O)CN1CCN(CC(=O)O)CCN(CC(=O)O)CC1)C(=O)O (stereo partly shown) [MAB7020] | –
5 | – | – | 9.8 nM and 10 nM | 13 | CC[C@H](C)[C@H](NC(=O)[C@@H](Cc1ccc2ccccc2c1)NC(=O)[C@H](CO)NC(=O)[C@](C)(Cc1ccccc1)NC(=O)CNC(=O)[C@@H]1CCCN1C(=O)[C@@H]1C[C@@H]2CCCC[C@@H]2N1C(=O)[C@H](CCCNC(=N)N)NC(=O)[C@H](CCCN)NC(=O)CN1CCN(CC(=O)O)CCN(CC(=O)O)CC1)C(=O)O (natCu complex, metal not drawn) [MAB7090] | –
